From US5919682A, “Overproduction of neuronal nitric oxide synthase” (Board of Regents, University of Texas System, priority 1995, dated 1999)
Values joined by “and” are separate entries in the source; they are usually repeats but may differ in a detail not shown here. Equal entries are not always repeated. “Also recorded” adds a separate entry of the source. Each block holds one compound with its values, some of them ahead of it.

Assays:
E. coli-expressed nNOS [1] = molecular target: T1, E. coli-expressed nNOS (Rattus norvegicus, UniProt P29476); conditions: purified nnos, 2 min
T1 sequence (P29476 whole entry): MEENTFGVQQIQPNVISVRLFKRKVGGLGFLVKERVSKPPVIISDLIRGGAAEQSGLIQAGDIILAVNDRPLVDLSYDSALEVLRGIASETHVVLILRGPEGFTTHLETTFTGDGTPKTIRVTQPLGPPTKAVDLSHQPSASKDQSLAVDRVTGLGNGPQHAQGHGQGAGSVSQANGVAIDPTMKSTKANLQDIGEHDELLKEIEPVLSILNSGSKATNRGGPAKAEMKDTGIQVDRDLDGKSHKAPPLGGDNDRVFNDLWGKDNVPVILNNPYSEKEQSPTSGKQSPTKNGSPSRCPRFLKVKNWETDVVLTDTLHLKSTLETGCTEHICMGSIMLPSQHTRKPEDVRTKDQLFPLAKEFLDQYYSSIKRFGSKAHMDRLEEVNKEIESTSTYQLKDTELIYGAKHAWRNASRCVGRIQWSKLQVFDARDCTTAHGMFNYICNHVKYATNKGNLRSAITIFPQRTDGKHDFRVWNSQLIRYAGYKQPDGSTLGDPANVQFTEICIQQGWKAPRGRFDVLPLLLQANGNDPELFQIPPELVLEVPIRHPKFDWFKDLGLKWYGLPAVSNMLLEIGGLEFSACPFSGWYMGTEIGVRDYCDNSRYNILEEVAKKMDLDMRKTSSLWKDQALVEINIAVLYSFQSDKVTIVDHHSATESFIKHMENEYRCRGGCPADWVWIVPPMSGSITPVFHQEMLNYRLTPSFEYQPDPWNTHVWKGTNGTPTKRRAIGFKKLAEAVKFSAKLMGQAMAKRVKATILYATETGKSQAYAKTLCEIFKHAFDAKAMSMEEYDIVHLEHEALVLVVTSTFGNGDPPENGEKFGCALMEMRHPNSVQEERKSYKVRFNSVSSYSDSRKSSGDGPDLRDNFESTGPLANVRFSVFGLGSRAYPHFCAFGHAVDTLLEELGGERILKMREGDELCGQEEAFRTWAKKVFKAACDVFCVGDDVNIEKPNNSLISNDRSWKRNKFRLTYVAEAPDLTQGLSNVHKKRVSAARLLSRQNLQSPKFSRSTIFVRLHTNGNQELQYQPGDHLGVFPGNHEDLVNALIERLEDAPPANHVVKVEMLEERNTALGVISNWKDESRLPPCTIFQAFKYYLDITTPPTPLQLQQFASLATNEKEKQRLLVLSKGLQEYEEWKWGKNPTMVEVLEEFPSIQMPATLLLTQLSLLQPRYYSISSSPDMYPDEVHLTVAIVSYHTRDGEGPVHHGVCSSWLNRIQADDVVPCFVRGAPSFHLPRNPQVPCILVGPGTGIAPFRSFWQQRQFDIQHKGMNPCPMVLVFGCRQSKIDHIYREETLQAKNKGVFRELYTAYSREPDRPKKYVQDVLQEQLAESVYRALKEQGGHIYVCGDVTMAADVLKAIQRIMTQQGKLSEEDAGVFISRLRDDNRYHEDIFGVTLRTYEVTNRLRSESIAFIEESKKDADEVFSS
Experimental: Enzymatic activity determined by the rate of NO. formation. The rate of nitric oxide formation was measured using both the hemoglobin capture assay (Kelm and Schrader, 1990), performed at 25° C. as described by Sheta, et al. (1994), and the method of Bredt and Snyder (1990), which monitors the formation of [^3 H] L-citrulline from [^3 H] […] Each reaction mixture, containing 0.5 mg of enzyme, was incubated at 25° C. for 2 minutes (over which time the reaction is linear). For Km analysis, the concentration of [^3 H]
Enzymatic activity of purified E. coli-expressed enzyme.

E. coli-expressed nNOS [2] = molecular target: T1, E. coli-expressed nNOS; test: Absolute absorbance spectrum perturbation of nNOS; assay type: binding; design: made in house; host or cells: E. coli BL21 co-transformed with pNOSpCW and pGroELS; conditions: imidazole 1 mM; arginine 2 μM
Experimental: Studies were performed as described in Example 2 using 3.2 μM nNOS.
(§1) Spectrophotometric methods. Absolute spectra and CO difference spectra were performed essentially as described by McMillan and Masters (1993) with the exception that all measurements were performed in buffer B and the CO difference spectra were obtained by reducing the protein and then bubbling the sample cuvette with CO. Substrate perturbation difference spectra were performed as described (McMillan and Masters, 1993), but in the presence of 1 mM imidazole to shift the entire population of nNOS to the low spin heme state. The molar protein concentration was determined based on heme content and Δε444-475 =75 mM^1 (Stuehr and Ikeda-Saito, 1992; McMillan and Masters, 1995). All spectral analyses were performed using a Shimadzu Model 2101 UV/visible dual-beam spectrophotometer.

[3] = test system: nNOS isolated from rat brain; conditions: read-out: Km for L-arginine; reported by Bredt and Snyder (1990); cited from earlier work
[4] = test system: human kidney 293 cell-purified nNOS; test: Km analysis, nNOS from human kidney 293 cells; assay type: biochemical, rat; conditions: read-out: Km for L-arginine
Experimental: (§2) Enzymatic activity determined by the rate of NO. formation. […] L-citrulline from [^3 H] […] For Km analysis, the concentration of [^3 H]
These values are in excellent agreement with each other and with the Km value of 2 μM for nNOS reported by Bredt and Snyder (1990).

E. coli-expressed nNOS [5] = molecular target: T1, E. coli-expressed nNOS; test: Substrate perturbation difference spectrophotometry (spectral binding); design: made in house; host or cells: E. coli BL21 co-transformed with pNOSpCW and pGroELS; conditions: 1 mM imidazole present; assuming Kd imidazole 160 μM; read-out: spectral binding constant (KS)
Experimental: Studies were performed as described in Example 2 using 1.5 μM nNOS in the presence of 1 mM imidazole.
as §1
(FIG. 2B), using the following:
apparent KS =KS (1+[Imidazole]/Kd imidazole).

E. coli-expressed nNOS [6] = molecular target: T1, E. coli-expressed nNOS; test: [3H]-NNA binding to purified E. coli-expressed nNOS by direct titration; design: made in house; host or cells: E. coli BL21 co-transformed with pNOSpCW and pGroELS
Experimental: Studies were performed as described in Example 4 using 10 pmole nNOS. Symbols are: circles, semi-purified E. coli-expressednNOS eluted from a 2'5'-ADP-Sepharose 4B column in the absence of BH4 during purification; triangles, purified E. coli-expressed nNOS purified in the presence of BH4 as described in Example 1; open symbols represent data from assays performed in the absence of additional BH4; filled symbols represent data from assays performed in the presence of 10 μM BH4.
The incubation was stopped by aspiration of the sample through the PVDF membrane. The wells were washed twice with 200 μl of 50 mM Tris, pH 7.6, air-dried for 10 minutes, 25 μl scintillation cocktail was added, and samples were counted.
Binding of N^ω -nitro-arginine to purified E. coli-expressed enzyme.

nNOS = conditions: assumed value from McMillan and Masters, 1993, Wolff et al., read-out: Kd imidazole; cited from earlier work
[7] = Specific activity of nNOS (NO formation); assay type: biochemical
Excerpt: as §2

stimulation of turnover by BH4, fraction 1 (E. coli-expressed nNOS [1]): 2.7 fold
stimulation of turnover by BH4, fraction 2 (E. coli-expressed nNOS [1]): 2.3 fold
Compound: C[C@H](O)[C@H](O)[C@H]1CNc2nc(N)[nH]c(=O)c2N1 [BH4, (6R)-5, 6, 7, 8 tetrahydro-L-biopterin]

Compound: N=C(N)NCCC[C@H](N)C(=O)O [L-arginine]
shift of maximum heme absorbance at 400 nm (E. coli-expressed nNOS [2]): completely to the high spin form (peak at 395 nm)
Km [3]: 2 µM and ~2 µM
Km [4]: 1.9 µM and ~2 µM
Kd (E. coli-expressed nNOS [5]): ~717 nM and 717 nM

Bmax (E. coli-expressed nNOS [6]; Fraction 1, (+) BH4): 0.54 pmol NNA/pmol nNOS
Bmax (E. coli-expressed nNOS [6]; Fraction 1, (-) BH4): 0.078 pmol NNA/pmol nNOS
Bmax (E. coli-expressed nNOS [6]; Fraction 2, (+) BH4): 0.69 pmol NNA/pmol nNOS
Bmax (E. coli-expressed nNOS [6]; Fraction 2, (-) BH4): 0.67 pmol NNA/pmol nNOS
Compound: N=C(NCCC[C@H](N)C(=O)O)N[N+](=O)[O-] [NNA, N^ω -nitro-L-arginine]
binding of NNA to nNOS fraction 1 (E. coli-expressed nNOS [6]; fraction 1 (pre-BH4)): binds significantly to E. coli-expressed nNOS fraction 1 only in the presence of added BH4
binding of NNA to nNOS fraction 2 (E. coli-expressed nNOS [6]; fraction 2 (65% BH4-saturated)): equally well in the presence or absence of added BH4

Compound: c1c[nH]cn1 [imidazole]
shift of maximum heme absorbance at 400 nm (E. coli-expressed nNOS [2]): low spin form (peak at 428 nm)
Kd (nNOS): 160000 nM

Compound: nNOS from JM109: nNOS co-expressed with groEL and groES in E. coli JM109, heavily proteolyzed upon cell lysis
activity relative to nNOS purified from 293 cells ([7]; nNOS from E. coli JM109 co-expressing groEL and groES, heavily proteolyzed): 1%

Compound: nNOS: rat neuronal NOS overexpressed in E. coli BL21 with chaperonins groEL and groES
specific activity compared with mammalian (kidney 293) cell-expressed nNOS [7]: equal to or exceeding the activity of kidney 293 cell-derived enzyme; also recorded: at least as high as that of kidney 293 cell-expressed enzyme; also recorded: at least equal to or greater than the mammalian cell-expressed nNOS
specific activity / turnover ([7]; E. coli-expressed nNOS, both hemoglobin capture and citrulline assays): 450 nmol/min/mg
